From ChEMBL document CHEMBL1157662, “Antimalarial and antileishmanial activities of histone deacetylase inhibitors with triazole-linked cap group” (Bioorg Med Chem, 2010) come the findings set out here.

Data set [1] deals with Plasmodium falciparum. The experiment in a line: microbe, parasite or virus in culture. To be noted: D6, Vero, 72 h.
Description: Antimalarial activity against chloroquine-sensitive Plasmodium falciparum D6 infected in African green monkey (Cercopithecus aethiops) Vero cells assessed as parasite LDH activity after 72 hrs by Malstat reagent method
Data set [2] has as its system Plasmodium falciparum. The experiment in a line: microbe, parasite or virus in culture. To be noted: Plasmodium falciparum, W2, Vero, 72 h; read-out: IC50. Format: functional, organism-based, W2, Vero.
Description: Antimalarial activity against chloroquine-resistant Plasmodium falciparum W2 infected in African green monkey (Cercopithecus aethiops) Vero cells assessed as parasite LDH activity after 72 hrs by Malstat reagent method
Data set [3] is described as follows: Selectivity index, ratio of IC50 for african green monkey (Cercopithecus aethiops) Vero cells to IC50 for chloroquine-sensitive Plasmodium falciparum D6.
The subject of another data set is Leishmania donovani. The experiment in a line: Antileishmanial activity against Leishmania donovani promastigotes after 72 hrs by alamar blue assay. Format: functional, organism-based. The note with it: Leishmania donovani, 72 h; for IC50: read-out: IC50. (In general: Alamar Blue is a resazurin reagent that responds to reducing activity.)
Data set [4] is described as follows: Selectivity index, ratio of IC50 for african green monkey (Cercopithecus aethiops) Vero cells to IC50 for chloroquine-resistant Plasmodium falciparum W2.
The next data set concerns Vero. The experiment in a line: Cytotoxicity against african green monkey Vero cells after 1 to 2 days by neutral red assay. Format: ADME, cell-based, Chlorocebus sabaeus.
[5] abbreviates: Chlorocebus sabaeus, Vero, read-out: IC50.

In brackets after ≈: the same amount, converted by molar mass.

A word on the IC50: it is the concentration that inhibits the measured activity by half. What is called IC90 is the concentration needed for an effect of 90%.

For the compound `C[C@@H]1CC[C@H]2[C@@H](C)C(=O)O[C@@H]3O[C@@]4(C)CC[C@@H]1[C@]32OO4` [ARTEMISININ], the IC50 was 0.004 µg/mL (≈ 0.0142 µM) in the data set with Plasmodium falciparum [1] and 0.006 µg/mL (≈ 0.0213 µM) in the data set on Plasmodium falciparum [2].

For `CN(C)c1ccc(-c2cn(CCCCCC(=O)NO)nn2)cc1`, the values for the selectivity ratio in data set [3] and in data set [4] were 50 and 88.3, respectively. For the same compound, the IC50 came to 0.068 µg/mL (≈ 0.214 µM) with Plasmodium falciparum [1], 15.5 µg/mL (≈ 48.8 µM) in the data set with Leishmania donovani, 3.4 µg/mL (≈ 10.7 µM) in the data set with Vero (setting [5]) and 0.0385 µg/mL (≈ 0.121 µM) in the data set with Plasmodium falciparum [2]. The same compound returned an IC90 with Leishmania donovani above 40 µg/mL.

As to `O=C(CCCCCn1cc(-c2ccccn2)nn1)NO`, the selectivity ratio worked out at 2.9 in data set [3] and 4.6 in data set [4]. Further, the IC50 in the data set with Plasmodium falciparum [1] was determined as 0.985 µg/mL (≈ 3.58 µM); with Leishmania donovani it was 20.5 µg/mL (≈ 74.5 µM); in the data set with Vero (setting [5]), 2.9 µg/mL (≈ 10.5 µM); in the data set on Plasmodium falciparum [2] it was 0.625 µg/mL (≈ 2.27 µM). The IC90 in the data set with Leishmania donovani is above 40 µg/mL.

As for `Cc1ccccc1-c1cn(CCCCCC(=O)NO)nn1`, the selectivity ratio was 2.6 in data set [3] and 1.7 in data set [4]. For the same compound, the IC50 in the data set with Plasmodium falciparum [1] was 1.25 µg/mL (≈ 4.33 µM); with Leishmania donovani, 23 µg/mL (≈ 79.8 µM); in the data set on Vero (setting [5]), 3.3 µg/mL (≈ 11.4 µM); in the data set with Plasmodium falciparum [2], 1.95 µg/mL (≈ 6.76 µM). In the data set with Leishmania donovani, this compound gave an IC90 above 40 µg/mL.

Consider `C[C@@H]1[C@H](O)[C@@H](C)/C=C/C=C/C=C/C=C/C=C/C=C/C=C/[C@H](O[C@@H]2O[C@H](C)[C@@H](O)[C@H](N)[C@@H]2O)C[C@@H]2O[C@](O)(C[C@@H](O)C[C@@H](O)[C@H](O)CC[C@@H](O)C[C@@H](O)CC(=O)O[C@H]1C)C[C@H](O)[C@H]2C(=O)O` [AMPHOTERICIN B], for which, in the data set on Leishmania donovani, the 90% effect level (IC90) was put at 0.31 µg/mL (≈ 0.335 µM) and the IC50 stood at 0.14 µg/mL (≈ 0.152 µM).

As to `O=C(CCCCCn1cc(-c2ccccc2-c2ccccc2)nn1)NO`, the values for the selectivity ratio in data set [3] and in data set [4] were 1.3 and 1, respectively. For the same compound, the IC50 in the data set with Plasmodium falciparum [1] was found to be 2.1 µg/mL (≈ 5.99 µM); with Leishmania donovani, 13 µg/mL (≈ 37.1 µM); in the data set with Vero (setting [5]), 2.7 µg/mL (≈ 7.7 µM); with Plasmodium falciparum [2], 2.6 µg/mL (≈ 7.42 µM). The compound further registered an IC90 in the data set with Leishmania donovani of 38 µg/mL (≈ 108 µM).

On to `O=C(CCCCCn1cc(-c2cccnc2)nn1)NO`, for which the selectivity ratio in data set [3] was above 27.2; in data set [4], above 23.2. Also, the IC50 was 0.175 µg/mL (≈ 0.636 µM) in the data set on Plasmodium falciparum [1], 11.4 µg/mL (≈ 41.6 µM) with Leishmania donovani, “Non-toxic” in the data set with Vero (vero) and 0.205 µg/mL (≈ 0.745 µM) in the data set on Plasmodium falciparum [2]. Besides, the IC90 in the data set on Leishmania donovani was above 40 µg/mL.

For `COc1cccc(OC)c1-c1cn(CCCCCC(=O)NO)nn1`, the selectivity ratio is above 2.4 in data set [3] and above 1.8 in data set [4]. Also, the IC50 was 2 µg/mL (≈ 5.98 µM) in the data set on Plasmodium falciparum [1], 40 µg/mL (≈ 120 µM) in the data set on Leishmania donovani, “Non-toxic” in the data set with Vero (vero) and 2.6 µg/mL (≈ 7.78 µM) in the data set with Plasmodium falciparum [2]. This compound also yielded an IC90 in the data set on Leishmania donovani above 40 µg/mL.

`O=C(CCCCCCC(=O)Nc1ccccc1)NO` [VORINOSTAT]: the concentration for an effect of 90% (IC90) with Leishmania donovani worked out at 57.9 µg/mL (≈ 219 µM).

In the case of `COc1ccc(-c2cn(CCCCCC(=O)NO)nn2)cc1`, the selectivity ratio in data set [3] was determined as 18.1; in data set [4], 26.1. In addition, the IC50 is 0.13 µg/mL (≈ 0.427 µM) in the data set with Plasmodium falciparum [1], 18.5 µg/mL (≈ 60.8 µM) with Leishmania donovani, 2.35 µg/mL (≈ 7.72 µM) with Vero (setting [5]) and 0.09 µg/mL (≈ 0.296 µM) in the data set with Plasmodium falciparum [2]. Besides, in the data set on Leishmania donovani, the IC90 was above 40 µg/mL.

As for `O=C(CCCCCCn1cc(-c2cccc(-c3ccccc3)c2)nn1)NO`, the selectivity ratio in data set [3] and in data set [4] was above 190 throughout. The IC50 is 0.025 µg/mL (≈ 0.0686 µM) with Plasmodium falciparum [1], 20.5 µg/mL (≈ 56.2 µM) in the data set with Leishmania donovani, “Non-toxic” in the data set with Vero (vero) and 0.025 µg/mL (≈ 0.0686 µM) in the data set on Plasmodium falciparum [2]. Also, the IC90 in the data set with Leishmania donovani was above 40 µg/mL.

With `O=C(CCCCCn1cc(-c2ccncc2)nn1)NO`, the selectivity ratio in data set [3] is above 24.4; in data set [4] it was above 35.9. In addition, the IC50 in the data set on Plasmodium falciparum [1] is 0.195 µg/mL (≈ 0.708 µM); in the data set on Leishmania donovani, 17.8 µg/mL (≈ 64.5 µM); in the data set with Vero (vero) it was “Non-toxic”; with Plasmodium falciparum [2], 0.133 µg/mL (≈ 0.481 µM). Further, the IC90 in the data set with Leishmania donovani was above 40 µg/mL.

For the compound `CC(/C=C/C(=O)NO)=C\[C@@H](C)C(=O)c1ccc(N(C)C)cc1` [TRICHOSTATIN], the IC50 came to 0.0412 µg/mL (≈ 0.136 µM) in the data set on Plasmodium falciparum [1], 1.37 µg/mL (≈ 4.53 µM) in the data set on Leishmania donovani, 0.095 µg/mL (≈ 0.314 µM) in the data set on Vero (setting [5]) and 0.0495 µg/mL (≈ 0.164 µM) in the data set on Plasmodium falciparum [2]. Further, it took 20.5 µg/mL (≈ 67.8 µM) to reach the 90% level in the data set on Leishmania donovani (IC90).

The compound `N=C(N)c1ccc(OCCCCCOc2ccc(C(=N)N)cc2)cc1` [PENTAMIDINE] showed an IC90 with Leishmania donovani of 1.8 µg/mL (≈ 5.29 µM).
